In patent publication US20070117770A1, “Human ribosomal DNA (rDNA) and ribosomal RNA (rRNA) nucleic acids and uses thereof” (Cylene Pharmaceuticals, Inc., priority 2005, published 2007):

How the values were obtained:
[1] = target: SGK3(h) (Homo sapiens, UniProt Q96BR1); assay: Protein kinase inhibition assay; type: biochemical; settings: read-out: percent residual activity of SGK3(h)
Experimental: (§1) Certain compounds were tested for activity in protein kinase inhibition assays. All substrates were dissolved and diluted to working stocks in de-ionized water, apart from histone H1 (10× working stock in 20 mM MOPS pH 7.0), PDKtide (10× working stock in 50 mM Tris pH 7.0) ATF2 (which is typically stored at a 20× working stock in 50 mM Tris pH 7.5, 150 mM NaCl, 0.1 mM EGTA, 0.03% Brij-35, 50% glycerol, 1 mM benzamidine, 0.2 mM PMSF and 0.1% R-mercaptoethanol), KKLNRTLSFAEPG (SEQ ID NO:203) and RRRLSFAEPG (SEQ ID NO:204) (50 mM HEPES pH 7.4) and GGEEEEYFELVKKKK (SEQ ID NO:205) (20 mM MOPS pH 7.0). All kinases were pre-diluted to a 10× working concentration prior to addition into the assay. The composition of the dilution buffer for each kinase is detailed below.
In a final reaction volume of 25 μl, SGK3 (h) (5-10 mU) is incubated with 8 mM MOPS pH 7.0, 0.2 mM EDTA, 250 μM GRPRTSSFAEGKK (SEQ ID NO:226), 10 mM MgAcetate and [gamma-33P-ATP] (specific activity approx. 500 cpm/pmol, concentration as required). The reaction is initiated by the addition of the MgATP mix. After incubation for 40 minutes at room temperature, the reaction is stopped by the addition of 5 μl of a 3% phosphoric acid solution. 10 μl of the reaction is then spotted onto a P30 filtermat and washed three times for 5 minutes in 75 mM phosphoric acid and once in methanol prior to drying and scintillation counting.

[2] = target: PKCε(h) (Homo sapiens, UniProt Q02156); assay: Protein kinase inhibition assay; type: biochemical; settings: read-out: percent residual activity of PKCε(h)
PKCε(h), sequence (Q02156 whole entry): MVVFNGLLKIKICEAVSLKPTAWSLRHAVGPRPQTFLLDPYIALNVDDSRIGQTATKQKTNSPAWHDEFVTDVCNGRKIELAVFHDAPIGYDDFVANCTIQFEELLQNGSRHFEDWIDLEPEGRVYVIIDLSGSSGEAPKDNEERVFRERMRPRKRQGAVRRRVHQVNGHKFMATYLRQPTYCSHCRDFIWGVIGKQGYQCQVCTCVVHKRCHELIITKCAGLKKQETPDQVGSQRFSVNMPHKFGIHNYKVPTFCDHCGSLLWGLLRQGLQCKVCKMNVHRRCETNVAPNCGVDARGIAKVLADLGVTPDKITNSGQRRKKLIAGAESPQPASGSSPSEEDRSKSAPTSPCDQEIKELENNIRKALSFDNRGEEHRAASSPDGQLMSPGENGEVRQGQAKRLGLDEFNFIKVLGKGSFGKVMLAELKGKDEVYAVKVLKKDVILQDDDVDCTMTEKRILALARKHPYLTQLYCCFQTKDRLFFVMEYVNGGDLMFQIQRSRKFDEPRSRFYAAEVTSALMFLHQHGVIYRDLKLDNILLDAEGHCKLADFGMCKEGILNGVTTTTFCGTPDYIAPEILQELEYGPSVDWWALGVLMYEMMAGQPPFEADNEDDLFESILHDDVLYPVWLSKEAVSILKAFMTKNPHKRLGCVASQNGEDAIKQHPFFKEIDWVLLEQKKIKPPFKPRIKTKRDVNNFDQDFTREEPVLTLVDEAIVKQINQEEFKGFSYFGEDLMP
Experimental: as §1
In a final reaction volume of 25 μl, PKCε (h) (5-10 mU) is incubated with 20 mM HEPES pH 7.4, 0.03% Triton X-100, 0.1 mg/ml phosphatidylserine, 10 μg/ml diacylglycerol, 50 μM ERMRPRKRQGSVRRRV (SEQ ID NO:224), 10 mM MgAcetate and [gamma-33P-ATP] (specific activity approx. 500 cpm/pmol, concentration as required). The reaction is initiated by the addition of the MgATP mix. After incubation for 40 minutes at room temperature, the reaction is stopped by the addition of 5 pi of a 3% phosphoric acid solution. […]

[3] = target: MLCK(h) (Homo sapiens, UniProt Q9H1R3); assay: Protein kinase inhibition assay; type: biochemical; settings: read-out: percent residual activity of MLCK(h)
Experimental: as §1
(§2) In a final reaction volume of 25 μl, MLCK (h) (5-10 mU) is incubated with 8 mM MOPS pH 7.0, 0.2 mM EDTA, 0.5 mM CaCl2, 16 μg/ml calmodulin,250 μM KKLNRTLSFAEPG (SEQ ID NO:203), 10 mM MgAcetate and [gamma-33P-ATP] (specific activity approx. 500 cpm/pmol, concentration as required). The reaction is initiated by the addition of the MgATP mix. After incubation for 40 minutes at room temperature, the reaction is stopped by the addition of 5 μl of a 3% phosphoric acid solution. […]

[4] = test system: cells; assay: Apoptosis by Annexin V binding (FACS); type: cell-based
Experimental: Apoptosis was assessed by Annexin V binding in flow cytometry fluorescence activated cell sorting (FACS) assays. In such assays, cells were harvested and washed twice in PBS (4° C.) and resuspended at a concentration of 1×10^6 cells/ml in Binding Buffer (10× solution contains 0.1M HEPES/NaOH, pH7.4; […]; 25 mM CaCl2; PharMingen, 66121A). Cells were aliquotted (100 ul) into FACS tubes with Annexin V and/or viability dye. The tube contents were mixed gently and incubated for 15 minutes at room temperature in the dark. Binding Buffer (400 ul) was added to each tube and analyzed immediately by flow cytometry.
Annexin V is available in biotin, FITC (Annexin-V-FITC; PharMingen, 65874X) and PE (Annexin-PE; PharMingen, 65875X) formats. When using Annexin-V-FITC, Propidium Iodide (PI; Sigma, P 4170) was used as the viability marker (5 ul of a 50 ug/ml stock solution). When using Annexin-V-PE, 7-AminoActinomycin D (7-AAD; Sigma, A 9400) was the preferred viability marker (1 ug/ml final concentration) as there is less spectral overlap of PE and 7-AAD than PE and PI. While 7-AAD is not as bright as PI, FITC, PE and PI can be combined effectively. Tubes contained (i) cells alone, (ii) cells+Annexin, (iii) cells+PI (or 7-AAD) or (iv) cells+Annexin+PI (or 7-AAD) in some assays.

[5] = target: cKit(D816V)(h) (Homo sapiens, UniProt P10721, D816V); assay: Protein kinase inhibition assay; type: biochemical; settings: read-out: percent residual activity of cKit(D816V)(h)
cKit(D816V)(h), sequence (P10721 26-976 D816V): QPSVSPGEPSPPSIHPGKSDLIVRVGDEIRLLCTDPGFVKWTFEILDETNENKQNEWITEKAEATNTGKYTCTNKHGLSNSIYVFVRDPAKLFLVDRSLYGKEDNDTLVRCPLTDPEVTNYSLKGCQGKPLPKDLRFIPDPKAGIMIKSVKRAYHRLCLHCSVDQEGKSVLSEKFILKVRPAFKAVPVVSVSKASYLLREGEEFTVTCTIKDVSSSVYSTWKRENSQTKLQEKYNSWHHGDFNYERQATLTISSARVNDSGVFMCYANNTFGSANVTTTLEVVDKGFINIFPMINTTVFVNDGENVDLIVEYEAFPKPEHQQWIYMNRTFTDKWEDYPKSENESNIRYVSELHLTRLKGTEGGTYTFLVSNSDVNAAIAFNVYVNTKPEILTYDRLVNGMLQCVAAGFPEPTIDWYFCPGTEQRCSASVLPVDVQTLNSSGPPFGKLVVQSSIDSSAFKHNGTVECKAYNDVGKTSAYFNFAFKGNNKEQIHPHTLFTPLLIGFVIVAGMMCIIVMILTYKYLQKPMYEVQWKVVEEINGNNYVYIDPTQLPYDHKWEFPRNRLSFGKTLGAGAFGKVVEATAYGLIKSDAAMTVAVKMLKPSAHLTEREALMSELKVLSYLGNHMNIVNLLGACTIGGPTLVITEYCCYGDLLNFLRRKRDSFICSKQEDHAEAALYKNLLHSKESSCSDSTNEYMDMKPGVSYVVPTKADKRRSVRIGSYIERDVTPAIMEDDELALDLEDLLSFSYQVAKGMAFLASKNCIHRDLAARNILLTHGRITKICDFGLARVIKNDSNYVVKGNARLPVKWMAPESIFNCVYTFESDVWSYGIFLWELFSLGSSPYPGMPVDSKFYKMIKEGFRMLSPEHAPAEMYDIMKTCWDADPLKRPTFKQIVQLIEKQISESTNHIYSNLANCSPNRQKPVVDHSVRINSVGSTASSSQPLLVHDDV
Experimental: as §1
as §2, with “cKit (D816V)” for “MLCK”, “10” for “0.5”, “MnCl2, 0.1 mg/ml poly(Glu, Tyr) 4:1,” for “CaCl2, 16 μg/ml calmodulin,250 μM KKLNRTLSFAEPG (SEQ ID NO:203),”

SGK3(h), sequence (Q96BR1 whole entry): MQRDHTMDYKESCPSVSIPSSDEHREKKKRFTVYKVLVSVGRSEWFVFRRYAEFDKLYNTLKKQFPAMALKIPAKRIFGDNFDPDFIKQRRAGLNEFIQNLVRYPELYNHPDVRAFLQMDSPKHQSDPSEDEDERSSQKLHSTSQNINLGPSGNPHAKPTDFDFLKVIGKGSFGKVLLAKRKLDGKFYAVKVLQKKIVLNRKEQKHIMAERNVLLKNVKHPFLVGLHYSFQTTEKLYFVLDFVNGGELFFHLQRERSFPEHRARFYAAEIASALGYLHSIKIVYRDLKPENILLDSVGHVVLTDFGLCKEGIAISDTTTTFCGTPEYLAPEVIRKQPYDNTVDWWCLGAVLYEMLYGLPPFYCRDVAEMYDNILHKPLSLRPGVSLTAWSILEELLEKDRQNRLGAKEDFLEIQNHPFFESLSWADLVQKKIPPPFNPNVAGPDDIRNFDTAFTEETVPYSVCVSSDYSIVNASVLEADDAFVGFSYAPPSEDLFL

| SMILES | remaining activity at 2.5 µM [1] | remaining activity at 2.5 µM [2] | remaining activity at 2.5 µM [3] | induction of apoptosis [4] | remaining activity at 2.5 µM [5] |
| --- | --- | --- | --- | --- | --- |
| CN1CCCC1CCNC(=O)c1cn2c3c(c(N4CCC(c5cnccn5)C4)c(F)cc3c1=O)Oc1cc3ccccc3cc1-2 (stereo not shown) [Compound A-1] | 44% | 99% | 77% | induced apoptosis | 104% |
| CC(=O)N1CCN(c2ccc3c(=O)c(C(=O)NCCN4CCCC4)c4n(C)c5ccccc5n4c3n2)CC1 [Compound B-1] | 128% | 109% | 94% | induced apoptosis following an efficient arrest of cell cycle progression | 103% |
